A word on the GI50: it is the concentration that inhibits growth by half. A word on the TGI: it is the concentration giving total growth inhibition. Read a high TGI as lower sensitivity of the cells.

Common to all, as to experiment: DTP human tumour cell line panel, 48 h
The test system of assay [1] is HCT-116 colon.
Assay [2] deals with NCI/ADR-RES ovarian.
Assay [3] deals with RXF 393 renal.
The subject of assay [4] is CAKI-1 renal.
For assay [5], the system named is MCF7 breast.
Assay [6] has as its system HL-60(TB) leukemia.
The test system of assay [7] is MALME-3M melanoma.
The test system of assay [8] is SN12C renal.
The test system of assay [9] is OVCAR-4 ovarian.
For assay [10], the system named is 786-0 renal.

Structures are written as SMILES. Values joined by “and” are separate entries in the source; they are usually repeats but may differ in a detail not shown here. Identical values can stand only once.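 How tested: cells in 96-well plates exposed to compound for 48 hours at five concentrations. GI50 is the concentration that inhibits growth by half. Definition used: TGI = concentration required for complete inhibition of growth.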

For the molecule `C=CC(=O)Nc1cc2c(Nc3ccc(F)c(Cl)c3)ncnc2cc1C#CC(C)(C)N1CCN(C)CC1`, the GI50 in [1] was 1.52 µM; in [2], 2.46 µM; in assay [3], 0.837 µM; in [4] it was 0.973 µM; in [5] it was 0.995 µM; in assay [6] it was 1.88 µM. The GI50 in [7] was 1.49 µM; in assay [8], 0.572 µM; in assay [9], 1.32 µM; in assay [10], 1.31 µM. The TGI was 3.01 µM in assay [1]; 7.65 µM in assay [2]; 2.15 µM in assay [3]; 4.05 µM in assay [4]; 3.17 µM in assay [5]; 5.08 µM in [6]. The TGI in assay [7] was found to be 5.05 µM; in assay [8] it was 2.51 µM; in assay [9] it was 2.86 µM; in assay [10] it was 2.82 µM.
As to `N#[N+]c1ccc(Nc2ccccc2)cc1`, the GI50 in assay [1] is more than 50 µg/mL; in assay [2] it was more than 50 µg/mL; in assay [3], more than 50 µg/mL; in [4], 1.11 µg/mL; in assay [5] it was more than 50 µg/mL; in assay [6], more than 50 µg/mL. Further, the GI50 is more than 50 µg/mL in assay [7], more than 50 µg/mL in [8], 0.472 µg/mL in assay [9] and more than 50 µg/mL in assay [10]. Moreover, the TGI in assay [1] is more than 50 µg/mL; in [2] it was more than 50 µg/mL; in assay [3], more than 50 µg/mL; in [4], 19.3 µg/mL; in [5] it was more than 50 µg/mL; in [6], more than 50 µg/mL. The TGI in [7] was more than 50 µg/mL; in assay [8], more than 50 µg/mL; in assay [9], 2.27 µg/mL; in assay [10], more than 50 µg/mL.
As for `COc1ccccc1C(=O)N(Cc1ccccc1)c1ccc(Cl)c(C(=O)OC(C)C)c1`, the TGI was more than 100 µM in [1]; 85.6 µM in [2]; 62.1 µM in assay [3]; 71.1 µM in assay [4]; more than 100 µM in [5]; 43.6 µM in assay [6]. Also, the TGI was 85.9 µM in assay [7], more than 100 µM in assay [8], more than 100 µM in assay [9] and more than 100 µM in assay [10].
`COc1cc(NC2CCCCC2O)c2nc(-c3ccc(Cl)cc3)ccc2c1` (configuration not stated): the GI50 in [1] was 12.9 µM; in assay [2] it was 6.1 µM; in [3], 2.78 µM; in assay [4] it was 4.73 µM; in [5] it was 0.358 µM; in [6], 7.57 µM. For the same molecule, the GI50 in assay [7] was 7.45 µM; in assay [8] it was 9.96 µM; in assay [9] it was 10.1 µM; in [10], 5.23 µM. The TGI in [1] is more than 100 µM; in [2] it was more than 100 µM; in assay [3], 4.58 µM; in assay [4], 63.2 µM; in assay [5], 35.5 µM; in [6], 63 µM. For the same molecule, the TGI in [7] was 28 µM; in assay [8], 53.1 µM; in assay [9], more than 100 µM; in assay [10] it was 18.6 µM.
Consider `COc1cc2c3cc1Oc1c(OC)c(OC)cc4c1C(Cc1ccc(O)c(c1)Oc1ccc(cc1)CC3N(C)CC2)N(C)CC4` (configuration not stated), for which the GI50 in assay [1] was 5.56 µM; in [3], 2.18 µM; in assay [4], 14 µM; in [5] it was 11.5 µM; in assay [6] it was 20.2 µM; in assay [7], 8.17 µM. The values for the GI50 in [8] and in assay [9] were 23.4 µM and 15.3 µM, respectively. For the same molecule, the TGI in [1] was > 100 µM and 49.5 µM; in assay [2] it was more than 100 µM; in assay [3], 14.8 µM; in [4], 48.5 µM and 40.6 µM; in assay [5], > 100 µM and 66.8 µM; in assay [6] it was 91.3 µM and 54.6 µM. Moreover, the TGI in [7] was > 100 µM and 23.8 µM; in assay [8] it was 47.1 µM and > 100 µM; in assay [9], > 100 µM and 50.7 µM; in assay [10] it was > 100 µM and 33.3 µM.
For `C[As](C)SC1OCC(O)C(O)C1O` (configuration not stated), the GI50 is 0.244 µM in [1]; 0.138 µM in assay [2]; 0.321 µM in assay [3]; 0.0514 µM in [4]; 0.173 µM in assay [5]; 0.0278 µM in assay [6]. For the same molecule, the GI50 is 0.069 µM in assay [7], 0.226 µM in [8], 1.09 µM in assay [9] and 0.0708 µM in [10]. Besides, the TGI in assay [1] amounted to 1.37 µM; in assay [2] it was 0.602 µM; in [3], 3.39 µM; in [4], 0.273 µM; in assay [5], 1.29 µM; in assay [6] it was 0.189 µM. In addition, the TGI in assay [7] was found to be 0.366 µM; in assay [8] it was 0.868 µM; in assay [9], 7.63 µM; in assay [10], 0.545 µM.
In the case of `CC1OC(OC2C(O)C(O)C(O)C(O)C2O)C(N)CC1N=C(N)C(=O)O` (configuration not stated), the TGI in [1], in assay [2], in assay [3], in assay [4], in assay [5] and in assay [6] was more than 100 µM each time. The TGI in assay [7], in [8], in assay [9] and in assay [10] was more than 100 µM throughout.
Take `O=CN1N=C(c2cccc(Nc3ccnc4cc(Cl)ccc34)c2)CC1c1ccc(Cl)cc1` (configuration not stated): the GI50 in assay [1] was 0.597 µM; in assay [2] it was 0.759 µM; in [3], 3.08 µM; in [4], 0.954 µM; in assay [5] it was 0.81 µM; in [6], 1.1 µM. Also, the GI50 was 1.63 µM in assay [7], 3.86 µM in assay [8], 4.13 µM in assay [9] and 4.73 µM in assay [10]. Further, the TGI in [1] is 5.29 µM; in assay [2], 3.94 µM; in assay [3], more than 100 µM; in [4], more than 100 µM; in assay [5], more than 100 µM; in assay [6], 3.81 µM. Further, the TGI in assay [7], in assay [8], in assay [9] and in assay [10] was more than 100 µM each time.
As to `O=C(O)c1ccccc1NCn1c(=S)sc2ccccc21`, the TGI in assay [1] was more than 100 µM; in [2], more than 100 µM; in assay [3], more than 100 µM; in [4] it was more than 100 µM; in [5], 51.7 µM; in [6] it was 38 µM. The TGI in assay [7], in assay [8], in [9] and in assay [10] was more than 100 µM in each case.
On to `OCC(O)C(O)C(O)C(O)c1nnc2c(-c3ccccc3)nc3ccccc3n12` (configuration not stated), for which the GI50 was more than 100 µM in assay [1]; 69.2 µM in assay [2]; 56.8 µM in assay [3]; more than 100 µM in [4]; 43.5 µM in [5]; more than 100 µM in assay [6]. Moreover, the GI50 in assay [7] was 38.7 µM; in assay [8], more than 100 µM; in [9], 16 µM; in assay [10] it was more than 100 µM. For the same molecule, the TGI in assay [1], in assay [2], in assay [3], in assay [4], in assay [5] and in assay [6] was more than 100 µM throughout. The TGI was more than 100 µM in assay [7], more than 100 µM in assay [8], 96.3 µM in [9] and more than 100 µM in assay [10].
Take `COc1ccc2c(c1OC)O/C(=C\c1ncc([N+](=O)[O-])n1C)C2=O`: the GI50 is 0.455 µM in assay [1]; 1.72 µM in assay [2]; 0.774 µM in assay [3]; 0.376 µM in assay [4]; 2.06 µM in [5]; 0.834 µM in assay [6]. Further, the GI50 in [7] is 1.15 µM; in assay [8], 1.78 µM; in [9], 5.95 µM; in assay [10], 1.95 µM. Further, the TGI in assay [1] is 3.68 µM; in assay [2] it was 7.87 µM; in assay [3] it was 2.27 µM; in assay [4] it was 2.46 µM; in [5] it was more than 27.8 µM; in assay [7] it was 3.53 µM. Besides, the TGI in assay [8] was 8.83 µM; in assay [9] it was more than 75.2 µM; in assay [10], 5.17 µM.
`CCn1c(-c2nonc2N)nc2cnc(Oc3cccc(NC(=O)c4ccc(N(C)C)cc4)c3)cc21`: the GI50 in assay [1] was 11.3 µM; in [2], more than 25 µM; in [3], 16.9 µM; in [4] it was 0.688 µM; in assay [5] it was more than 25 µM; in [6] it was more than 25 µM. Besides, the GI50 is more than 25 µM in assay [7], more than 25 µM in assay [8], more than 25 µM in assay [9] and 21.6 µM in assay [10]. The TGI in assay [1], in assay [2], in assay [3], in assay [4], in assay [5] and in assay [6] was more than 25 µM in each case. Also, the TGI in assay [7], in assay [8], in assay [9] and in assay [10] was more than 25 µM each time.
Regarding `Cn1c(=O)c2c(nc(N/N=C/c3ccccc3C(=O)O)n2C)n(C)c1=O`, the TGI in assay [1], in assay [2], in assay [3], in assay [4], in [5] and in assay [6] was more than 100 µM in each case. Besides, the TGI in assay [7], in [8], in assay [9] and in assay [10] was more than 100 µM in each case.
Regarding `Cc1nc2ccccc2c(=O)n1/N=C(\N=Nc1cc(Cl)ccc1Cl)c1ccccc1`, the total growth inhibition concentration (TGI) in [1] was more than 31.6 µM; in assay [2], more than 100 µM; in [3], more than 100 µM; in assay [4] it was more than 100 µM; in assay [5], more than 100 µM; in assay [6] it was more than 100 µM. For the same molecule, the total growth inhibition concentration (TGI) is more than 100 µM in [7], more than 83.3 µM in assay [8], more than 100 µM in assay [9] and more than 100 µM in [10].
On to `CC[C@H]1OC(=O)[C@H](C)[C@@H](O[C@H]2C[C@@](C)(OC)[C@@H](O)[C@H](C)O2)[C@H](C)[C@@H](O[C@@H]2O[C@H](C)C[C@H](N(C)C)[C@H]2O)[C@](C)(OC)C/C(C)=C2/O[C@@]1(C)C=C2C`, for which the GI50 in assay [1] is 1.93 µM; in assay [2], 1.77 µM; in [3], 2.09 µM; in assay [4], 1.51 µM; in assay [5] it was 1.82 µM; in assay [6], 1.86 µM. Further, the GI50 in assay [7] is 1.58 µM; in assay [8] it was 1.64 µM; in [9], 1.85 µM; in [10] it was 1.64 µM. In addition, the TGI in [1] was 4.36 µM; in assay [2], 3.57 µM; in [3], 3.75 µM; in assay [4], 2.93 µM; in assay [5] it was 3.63 µM; in [6] it was 4.16 µM. Also, the TGI stood at 2.97 µM in [7], 3.02 µM in [8], 4.22 µM in assay [9] and 3.16 µM in assay [10].
As for `Cc1cc(NN=C(c2ccc(O)cc2)c2ccc(O)cc2)c([N+](=O)[O-])cc1[N+](=O)[O-]`, the GI50 in [1] was 3.73 µM; in assay [2], 3.75 µM; in assay [3], 1.79 µM; in assay [4], 18.7 µM; in assay [5], 2.93 µM; in [6] it was 2.09 µM. Besides, the GI50 in [7] was 9.31 µM; in assay [8] it was 6.79 µM; in [9], 6.38 µM; in [10], 5.39 µM. Further, the TGI was 35.7 µM in [1]; more than 100 µM in assay [2]; 6.56 µM in assay [3]; 51.1 µM in [4]; 20.4 µM in assay [5]; 34.8 µM in assay [6]. For the same molecule, the TGI in assay [7] was 23.2 µM; in assay [8], 24.7 µM; in assay [9], more than 100 µM; in assay [10], 22.1 µM.

These data come from PubChem BioAssay (NCI).
